Results reported in patent US10563263B2, “Genetic polymorphisms associated with statin response and cardiovascular diseases, methods of detection and uses thereof” (CELERA CORPORATION, priority 2010, dated 2020).

Tested on: CHD
Experiment: Meta-analysis of CARE and WOSCOPS combined, synergy index, CHD endpoint
Assay type: in vivo, human
Source text: Tables 4-5 provide meta-analyses of CARE and WOSCOPS combined (2nd section of each table) for two endpoints (CHD and CVD) and three genetic models (dominant, recessive, and additive), as well as logistic regression analyses of CARE (3rd section of each table) and WOSCOPS (4th section of each table) individually.
Tables 12 and 17 provide results of meta-analysis of the CARE and WOSCOPS sample sets combined by direct genotyping and by imputing genotypes.
“P” indicates the p-value, and “P(R)” (or “P.R.”) indicates the p-value random effect. Both of these are p-values corresponding to a statistical test of whether the combined synergy index is equal to one but use different assumptions to derive the p-value. “P” is calculated using a fixed effects model, and “P(R)” is calculated using a random effects model.
“OR” indicates the odds ratio (synergy index) calculated from a fixed effects model, and “OR(R)” (or “OR.R.”) indicates the odds ratio (synergy index) calculated from a random effects model.

[1] = rs10105871 allele C DOMINANT Imputed
[2] = rs10116807 allele A GENOTYPIC Imputed
[3] = rs11178575 allele C GENOTYPIC Imputed
[4] = rs11178575 allele C RECESSIVE Imputed
[5] = rs11178577 allele T GENOTYPIC Imputed
[6] = rs11178577 allele T RECESSIVE Imputed
[7] = rs11178583 allele A DOMINANT Imputed
[8] = rs11178589 allele T DOMINANT Imputed
[9] = rs11178594 allele C DOMINANT Imputed
[10] = rs11178602 allele T DOMINANT Imputed
[11] = rs11178648 allele T DOMINANT Imputed
[12] = rs11198877 allele T DOMINANT Imputed
[13] = rs11198942 allele T DOMINANT Imputed
[14] = rs11221075 allele A ADDITIVE Imputed
[15] = rs11242020 allele T DOMINANT Imputed
[16] = rs11242021 allele T DOMINANT Imputed
[17] = rs11242022 allele T DOMINANT Imputed
[18] = rs11242023 allele T DOMINANT Imputed
[19] = rs11576627 allele T ADDITIVE Imputed
[20] = rs11576627 allele T DOMINANT Imputed
[21] = rs11602189 allele A DOMINANT Imputed
[22] = rs11605163 allele A DOMINANT Imputed
[23] = rs11615214 allele G ADDITIVE Imputed
[24] = rs11615214 allele G GENOTYPIC Imputed
[25] = rs11642394 allele C DOMINANT Imputed
[26] = rs11644943 allele A ADDITIVE Imputed
[27] = rs11656608 allele T DOMINANT Imputed
[28] = rs11661309 allele A ADDITIVE Imputed
[29] = rs11661309 allele A DOMINANT Imputed
[30] = rs11666131 allele A ADDITIVE Imputed
[31] = rs11743355 allele C ADDITIVE Imputed
[32] = rs11743355 allele C DOMINANT Imputed
[33] = rs11746806 allele T ADDITIVE Imputed
[34] = rs11746806 allele T DOMINANT Imputed
[35] = rs11746959 allele T ADDITIVE Imputed
[36] = rs11746959 allele T DOMINANT Imputed
[37] = rs11749272 allele T DOMINANT Imputed
[38] = rs11901899 allele A DOMINANT Imputed
[39] = rs11926319 allele G ADDITIVE Imputed
[40] = rs11926319 allele G DOMINANT Imputed
[41] = rs11956952 allele C DOMINANT Imputed
[42] = rs12025826 allele G DOMINANT Imputed
[43] = rs12153185 allele T DOMINANT Imputed
[44] = rs12182651 allele T ADDITIVE Imputed
[45] = rs12182651 allele T DOMINANT Imputed
[46] = rs12193568 allele G DOMINANT Imputed
[47] = rs12264914 allele C DOMINANT Imputed
[48] = rs12307767 allele C DOMINANT Imputed
[49] = rs12407412 allele C ADDITIVE Imputed
[50] = rs12407412 allele C DOMINANT Imputed
[51] = rs12420184 allele G DOMINANT Imputed
[52] = rs12422750 allele A DOMINANT Imputed
[53] = rs12446951 allele A ADDITIVE Imputed
[54] = rs12446951 allele A DOMINANT Imputed
[55] = rs12457400 allele G DOMINANT Imputed
[56] = rs12521291 allele G ADDITIVE Imputed
[57] = rs12526849 allele T ADDITIVE Imputed
[58] = rs12526849 allele T GENOTYPIC Imputed
[59] = rs12543110 allele G DOMINANT Imputed
[60] = rs12678600 allele A DOMINANT Imputed
[61] = rs12719415 allele T DOMINANT Imputed
[62] = rs12831292 allele G DOMINANT Imputed

CC[C@H](C)C(=O)O[C@H]1C[C@H](O)C=C2C=C[C@H](C)[C@H](CC[C@@H](O)C[C@@H](O)CC(=O)O)[C@H]21 [Pravastatin, pravastatin]
OR(R) (rs10067895 allele A DOMINANT Imputed): 0.5759 | Meta-analysis OR (rs10088505 allele A vs G (ref)): 1.61 | Meta-analysis OR (rs10088524, allele A1 G (non-ref), A2 A (ref), endpoint/model not given): 1.57 | Meta-analysis OR (rs10103297, allele A1 A (non-ref), A2 G (ref), endpoint/model not given): 2.03 | OR [1]: 1.6092 | OR(R) [1]: 1.6092 | OR [2]: 3.0952 | OR(R) [2]: 3.0952 | Meta-analysis OR (rs10120126 allele G vs A (ref)): 0.51 | Meta-analysis OR (rs10189905 allele C vs A (ref)): 0.52 | Meta-analysis OR (rs10500736 allele G vs A (ref)): 0.57 | Meta-analysis OR (rs10517923 allele A vs G (ref)): 1.61 | Meta-analysis OR (rs10814422 allele G vs A (ref)): 0.57 | Meta-analysis OR (rs10849442 allele A vs G (ref)): 0.57 | Meta-analysis OR (rs10875941, allele A1 G (non-ref), A2 A (ref), endpoint/model not given): 0.63 | Meta-analysis OR (rs10973013 allele A vs G (ref)): 0.55 | Meta-analysis OR (rs11076320 allele C vs A (ref)): 0.65 | Meta-analysis OR (rs11082492 allele A vs C (ref)): 1.55 | OR [3]: 1.8735 | OR(R) [3]: 1.8735 | OR [4]: 1.8848 | OR(R) [4]: 1.8848 | OR [5]: 1.87 | OR(R) [5]: 1.87 | OR [6]: 1.8884 | OR(R) [6]: 1.8884 | OR [7]: 0.5918 | OR(R) [7]: 0.5918 | OR [8]: 0.6108 | OR(R) [8]: 0.6108 | OR [9]: 0.5951 | OR(R) [9]: 0.5951 | OR [10]: 0.5942 | OR(R) [10]: 0.5942 | OR [11]: 0.576 | OR(R) [11]: 0.576 | OR [12]: 1.6068 | OR(R) [12]: 1.5927 | OR [13]: 1.6276 | OR(R) [13]: 1.6227 | OR [14]: 0.6561 | OR(R) [14]: 0.6561 | OR [15]: 0.5675 | OR(R) [15]: 0.5675 | OR [16]: 0.5753 | OR(R) [16]: 0.5753 | OR [17]: 0.5805 | OR(R) [17]: 0.5805 | OR [18]: 0.5807 | OR(R) [18]: 0.5807 | OR [19]: 1.6268 | OR(R) [19]: 1.6268 | OR [20]: 1.7055 | OR(R) [20]: 1.7055 | OR [21]: 0.6007 | OR(R) [21]: 0.6007 | OR [22]: 2.1075 | OR(R) [22]: 2.1075 | OR [23]: 0.6853 | OR(R) [23]: 0.6853 | OR [24]: 0.4648 | OR(R) [24]: 0.4738 | OR [25]: 1.4572 | OR(R) [25]: 1.4572 | OR [26]: 1.4247 | OR(R) [26]: 1.4247 | OR [27]: 0.6695 | OR(R) [27]: 0.6695 | OR [28]: 0.6163 | OR(R) [28]: 0.6163 | OR [29]: 0.5852 | OR(R) [29]: 0.5852 | OR [30]: 1.5364 | OR(R) [30]: 1.5364 | OR [31]: 0.1796 | OR(R) [31]: 0.1796 | OR [32]: 0.1817 | OR(R) [32]: 0.1817 | OR [33]: 0.2206 | OR(R) [33]: 0.2206 | OR [34]: 0.2253 | OR(R) [34]: 0.2253 | OR [35]: 0.1976 | OR(R) [35]: 0.1976 | OR [36]: 0.2007 | OR(R) [36]: 0.2007 | OR [37]: 0.5734 | OR(R) [37]: 0.5734 | OR [38]: 1.5824 | OR(R) [38]: 1.5824 | Meta-analysis OR (rs11925875 allele A vs G (ref)): 0.66 | OR [39]: 0.4343 | OR(R) [39]: 0.4343 | OR [40]: 0.4237 | OR(R) [40]: 0.4237 | OR [41]: 0.6564 | OR(R) [41]: 0.6564 | OR [42]: 1.5794 | OR(R) [42]: 1.5794 | OR [43]: 0.5759 | OR(R) [43]: 0.5759 | OR [44]: 2.1926 | OR(R) [44]: 2.1926 | OR [45]: 2.4795 | OR(R) [45]: 2.4795 | OR [46]: 1.7403 | OR(R) [46]: 1.8042 | OR [47]: 0.6442 | OR(R) [47]: 0.6442 | OR [48]: 0.6667 | OR(R) [48]: 0.6667 | OR [49]: 1.6268 | OR(R) [49]: 1.6268 | OR [50]: 1.7055 | OR(R) [50]: 1.7055 | OR [51]: 0.5645 | OR(R) [51]: 0.5645 | OR [52]: 0.6919 | OR(R) [52]: 0.6919 | OR [53]: 2.3413 | OR(R) [53]: 2.3413 | OR [54]: 2.3135 | OR(R) [54]: 2.3135 | OR [55]: 0.5884 | OR(R) [55]: 0.5884 | OR [56]: 0.6857 | OR(R) [56]: 0.6857 | OR [57]: 1.4208 | OR(R) [57]: 1.4208 | OR [58]: 2.0445 | OR(R) [58]: 2.0445 | OR [59]: 1.6401 | OR(R) [59]: 1.6401 | Meta-analysis OR (rs12556591 allele G vs A (ref)): 0.59 | Meta-analysis OR (rs12657484, allele A1 G (non-ref), A2 A (ref), endpoint/model not given): 1.49 | OR [60]: 0.6104 | OR(R) [60]: 0.6104 | OR [61]: 0.5662 | OR(R) [61]: 0.5662 | OR [62]: 0.5982 | OR(R) [62]: 0.5982 | Meta-analysis OR (rs13279522 allele G vs A (ref)): 0.62 | Meta-analysis OR (rs13314266 allele G vs A (ref)): 0.51 | Meta-analysis OR (rs13318232 allele G vs A (ref)): 0.52 | Meta-analysis OR (rs16861467, allele A1 G (non-ref), A2 A (ref), endpoint/model not given): 0.49 | Meta-analysis OR (rs17076974 allele A vs G (ref)): 1.40 | Meta-analysis OR (rs17546598 allele A vs G (ref)): 1.71 | Meta-analysis OR (rs17706237 allele G vs A (ref)): 1.69 | Meta-analysis OR (rs17716275, allele A1 A (non-ref), A2 G (ref), endpoint/model not given): 2.03 | Meta-analysis OR (rs72746987 allele A vs G (ref)): 0.40
